Assay results: patent US8653127B2, “Bicyclic pyrazolo-heterocycles” (Cara Therapeutics, Inc., priority 2009, dated 2014)
Where two headings read alike, the source gives them in different places.

Assays:
[1] = target: human CB1 receptor (hCB1) (Homo sapiens, UniProt P21554); experiment: cAMP assay, agonist/inverse agonist activity at human CB1 receptor; type: cell-based; conditions: hCB1R, read-out: EC50 at hCB1R (Potency at Human CB1 determined by cAMP Assay)
Description: The ability of each of the compounds to act as agonists or inverse agonists at human CB2 and CB 1 receptors (hCB2, hCB 1, respectively) and at the rat CB2 receptor (rCB2) was determined by measuring changes in intracellular cyclic AMP (cAMP) levels as described in U.S. Pat. No. 7,517,874.
TR-FRET was measured using a 330-380 nm excitation filter, 615 nm and 665 nm emission filters, dichroic mirror 380 nm and Z=10 mm. cAMP concentrations in each well were back-calculated from a cAMP standard curve run concurrently during each assay. Each plate contained 16 wells of forskolin stimulated cells and 16 wells of forskolin plus 1 μM CP55,940-treated cells. Concentrations of cAMP were expressed as a percent of the difference of these two groups of wells. Concentration-response data including EC50 (the concentration of compound producing 50% of the maximal response) and intrinsic activity (the percent maximal activation compared to full activation by CP55,940) were determined using a four-parameter non-linear regression algorithm (CambridgeSoft Bioassay).

[2] = tested on: Complete Freund's Adjuvant (CFA) model of inflammatory pain; experiment: Anti-hyperalgesia in CFA inflammatory pain model (paw withdrawal latency to thermal stimulus); type: in vivo, male Sprague-Dawley rats; conditions: PO dose 3 mg/kg, 1 hr after dosing (24 hr after CFA), rat, read-out: % MPE (1 hr), paw withdrawal latency after CFA injection
Description: The anti-hyperalgesic effects of test compounds in the Complete Freund's Adjuvant (CFA) model of inflammatory pain were determined essentially as described in U.S. Pat. No. 7,517,874 using male Sprague-Dawley rats (Hsd: Sprague-Dawley®SD®, Harlan, Indianapolis, Ind.) weighing 200-300 grams.
Test compounds were prepared in a Cremaphor vehicle mixture of 1:1:18 CremophorEL:ethanol:water. Cremophor was obtained from Sigma Chemical (St. Louis, Mo.). Vehicle mixture or vehicle mixture+test compound were each administered p.o.
Assessment of thermal hyperalgesia: Baseline and post-treatment paw withdrawal latencies to a noxious thermal stimulus were measured using a plantar test apparatus (Ugo Basile; obtained from Stoelting, Wood Dale, Ill.). This apparatus generates an infrared heat source that is linearly increasing in intensity. To avoid tissue damage, the power to the heat source was cut off after 20 seconds.
Paw withdrawal latency is defined as the time required for the rat to flick its paw away from the thermal stimulus. Ibuprofen (100 mg/kg, p.o.) was used as the positive control. Paw withdrawal latencies (in seconds) were measured before (naïve paw latency, L1) and 24 hr following (CFA-inflamed paw latency, L2) a single intraplantar injection of 0.1 mL CFA (Sigma-Aldrich, cat F5881, Mycobacterium tuberculosis 1 mg/ml).
Test compounds were administered orally 23 hours following CFA injection; i.e., 1 hour prior to thermal assessment (compound treated CFA-inflamed paw latency, L3). The mean paw withdrawal latency and standard error of the mean (SEM) was determined for the injured paws for each treatment group.
Data were expressed as percent maximum percent effect (% MPE) defined as the percentage of restoration of latency of test compound-treated CFA inflamed paw as compared to the naïve paw latency.

[3] = target: human CB2 receptor (hCB2) (Homo sapiens, UniProt P34972); experiment: cAMP assay, agonist/inverse agonist activity at human CB2 receptor; type: cell-based
Chain of human CB2 receptor (hCB2) (P34972 whole entry): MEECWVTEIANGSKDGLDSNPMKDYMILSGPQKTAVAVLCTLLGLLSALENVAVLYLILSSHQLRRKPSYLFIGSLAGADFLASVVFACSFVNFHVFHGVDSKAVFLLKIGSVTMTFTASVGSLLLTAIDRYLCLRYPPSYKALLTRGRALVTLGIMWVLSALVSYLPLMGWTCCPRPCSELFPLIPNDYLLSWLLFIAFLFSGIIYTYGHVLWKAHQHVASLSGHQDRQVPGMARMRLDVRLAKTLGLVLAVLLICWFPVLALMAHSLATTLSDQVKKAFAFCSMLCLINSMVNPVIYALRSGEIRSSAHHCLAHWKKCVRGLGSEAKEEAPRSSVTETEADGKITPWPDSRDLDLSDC
Description: TR-FRET was measured using a 330-380 nm excitation filter, 615 nm and 665 nm emission filters, dichroic mirror 380 nm and Z=10 mm. cAMP concentrations in each well were back-calculated from a cAMP standard curve run concurrently during each assay. Each plate contained 16 wells of forskolin stimulated cells and 16 wells of forskolin plus 1 μM CP55,940-treated cells. Concentrations of cAMP were expressed as a percent of the difference of these two groups of wells.

Chain of human CB1 receptor (hCB1) (P21554 whole entry): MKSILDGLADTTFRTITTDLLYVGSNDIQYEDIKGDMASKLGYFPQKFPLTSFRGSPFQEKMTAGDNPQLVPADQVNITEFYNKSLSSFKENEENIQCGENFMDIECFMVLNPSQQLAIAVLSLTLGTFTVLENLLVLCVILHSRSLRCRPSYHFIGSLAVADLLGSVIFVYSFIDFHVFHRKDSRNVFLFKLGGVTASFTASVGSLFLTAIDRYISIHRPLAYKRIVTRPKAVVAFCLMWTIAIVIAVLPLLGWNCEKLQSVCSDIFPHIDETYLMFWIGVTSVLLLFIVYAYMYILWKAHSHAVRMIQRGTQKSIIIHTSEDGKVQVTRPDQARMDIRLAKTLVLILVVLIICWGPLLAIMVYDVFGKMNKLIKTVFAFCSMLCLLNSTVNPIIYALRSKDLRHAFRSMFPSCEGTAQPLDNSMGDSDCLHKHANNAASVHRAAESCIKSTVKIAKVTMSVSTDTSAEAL

| Structure (SMILES) | EC50 [1] [µM] | inhibition in vivo at 3 mg/kg [2] [%] | EC50 ([3]; hCB2R, cAMP assay, read-out: EC50 at hCB2R (Potency at Human CB2 determined by cAMP Assay)) [µM] | EC50 [3] [µM] |
| --- | --- | --- | --- | --- |
| CNC(=O)[C@@H](NC(=O)c1nn(-c2ccc(F)c(F)c2)c2c1COCC2)C(C)(C)C [Compound 114, (S)-1-(3,4-difluorophenyl)-N-(3,3-dimethyl-1-(methylamino)-1-oxobutan-2-yl)-1,4,6,7-tetrahydropyrano[4,3-c]pyrazole-3-carboxamide] | < 1 | 41 | < 1 | – |
| CC(C)(C)[C@H](NC(=O)c1nn(-c2ccc(F)c(F)c2)c2c1COCC2)C(=O)NCCO [Compound 115, (S)-1-(3,4-difluorophenyl)-N-(1-(2-hydroxyethylamino)-3,3-dimethyl-1-oxobutan-2-yl)-1,4,6,7-tetrahydropyrano[4,3-c]pyrazole-3-carboxamide] | < 1 | 35 | – | < 1 |
| CC(C)(C)[C@H](NC(=O)c1nn(-c2ccc(F)c(F)c2)c2c1CCOC2)C(=O)NCCO [Compound 116, (S)-1-(3,4-difluorophenyl)-N-(1-(2-hydroxyethylamino)-3,3-dimethyl-1-oxobutan-2-yl)-1,4,5,7-tetrahydropyrano[3,4-c]pyrazole-3-carboxamide] | < 1 | 60 | – | < 1 |
